# Results from patent US6313132A, “Therapeutically active diarylpropylamines; their pharmaceutically acceptable salts; a method for their preparation and method for their use” (Pharmacia AB, priority 1999, dated 2001).
# Counter-ions that a name gives are not always drawn.
# Biological target: T1, muscarinic receptor (Cavia porcellus, UniProt H0W1Z3)
# T1 construct: Smooth muscle strips of the urinary bladder were dissected in a Krebs-Henseleit solution; from tissue; host or cells: guinea pig urinary bladder smooth muscle strips
# Test: Functional in vitro studies: antagonism of carbachol-induced contraction of urinary bladder smooth muscle strips
# Type: cell-based, guinea pig
# Details: male guinea pig urinary bladder strips; carbachol agonist; 60 min incubation with antagonist; Krebs-Henseleit pH 7.4, 37° C.; KB from dose ratios (Schild); read-out: KB-value
# Method: Functional in Vitro Studies
# Male guinea pigs, weighing about 300 g, were killed by a blow on the neck and exsanguinated. Smooth muscle strips of the urinary bladder were dissected in a Krebs-Henseleit solution (pH 7.4). The strip preparations were vertically mounted between two hooks in thermostatically controlled (37° C.) organ baths (5 ml). One of the hooks was adjustable and connected to a force transducer (FT 03, Grass Instruments). The Krebs-Henseleit solution was continuously bubbled with carbogen gas (93.5% O2 /6.5% CO2) to maintain the pH at 7.4. Isometric tension was recorded by a Grass Polygraph (Model 79D). A resting tension of approximately 5 mN was initially applied on each muscle strip and the preparations were allowed to stabilise for at least 45 min. The resting tension was repeatedly adjusted and the preparations were washed several times during the stabilisation period.
# Carbachol (carbamylcholine chloride) was used as the standard muscarinic receptor agonist. In each experiment, the viability of the preparations and the reproducibility of their contractile responses were initially tested by two consecutive additions of a submaximal concentration (3×10^-6 M) of carbachol. A concentration-response curve to carbachol was then generated by cumulative addition of carbachol to the organ-bath (i.e., stepwise increase of the agonist concentration until the maximal contractile response was reached), followed by washing out and a resting period of at least 15 min. before a fix concentration of the test compound (antagonist) was added to the organ-bath. After 60 min. of incubation with the antagonist, a second cumulative concentration-responsecurve to carbachol was generated. Responses were expressed as percent of the maximal response to carbachol. EC50 -values for carbachol in the absence (control) and presence of antagonist were graphically derived and dose ratios (r) were calculated. Dissociation constants, KB, for the antagonists were calculated using equation (1) (Schild, H. I., Br. J. Pharmacol. Chemother. 1949, 4, 277-280), where [A] is the concentration of test compound:
# T1 sequence (H0W1Z3 1-590): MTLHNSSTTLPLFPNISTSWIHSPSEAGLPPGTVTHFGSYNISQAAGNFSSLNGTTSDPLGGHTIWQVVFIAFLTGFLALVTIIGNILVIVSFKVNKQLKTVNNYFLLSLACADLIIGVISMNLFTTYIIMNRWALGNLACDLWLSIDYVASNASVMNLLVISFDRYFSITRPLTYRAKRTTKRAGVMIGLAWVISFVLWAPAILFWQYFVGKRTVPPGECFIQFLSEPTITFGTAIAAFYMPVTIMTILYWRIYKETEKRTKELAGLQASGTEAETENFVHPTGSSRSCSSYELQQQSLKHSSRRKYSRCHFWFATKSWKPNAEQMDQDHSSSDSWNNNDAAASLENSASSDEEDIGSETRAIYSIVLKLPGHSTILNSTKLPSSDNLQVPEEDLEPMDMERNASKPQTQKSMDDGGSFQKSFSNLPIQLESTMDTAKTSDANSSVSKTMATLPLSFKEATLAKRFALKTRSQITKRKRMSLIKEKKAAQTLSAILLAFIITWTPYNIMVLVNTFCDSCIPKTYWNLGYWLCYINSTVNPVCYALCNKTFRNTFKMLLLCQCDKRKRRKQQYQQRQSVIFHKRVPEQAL
row,Compound,Kb [µM]
1,"COc1cccc(C(CCN(C(C)C)C(C)C)c2cccs2)c1 (centres unmarked) [Example 45, N,N-Diisopropyl-3-(3-methoxyphenyl)-3-(2-thienyl)propanamine hydrochloride]",0.051
2,"COc1ccc(C(CCN(C(C)C)C(C)C)c2cccs2)cc1 (centres unmarked) [Example 46, N,N-Diisopropyl-3-(4-methoxyphenyl)-3-(2-thienyl)propanamine hydrochloride]",0.286
3,"COc1ccccc1C(CCN(C)C(C)C)c1cccs1 (centres unmarked) [Example 47, N-Isopropyl-N-methyl-3-(2-methoxyphenyl)-3-(2-thienyl)propanamine fumarate]",0.091
4,"CC(C)N(CCC(c1ccccc1)c1cccs1)C(C)C (centres unmarked) [Example 48, N,N-Diisopropyl-3-phenyl-3-(2-thienyl)propanamine, hydrochloride]",0.031
5,"CN(CCC(c1ccccc1)c1cccs1)C1CCCCC1 (centres unmarked) [Example 49, N-Cyclohexyl-N-methyl-3-phenyl-3-(2-thienyl)propanamine hydrochloride]",0.59
6,"CCN(CC)CCC(c1ccccc1)c1cccs1 (centres unmarked) [Example 50, fumarate]",0.154
7,"CC(C)N(C)CCC(c1ccccc1)c1cccs1 (centres unmarked) [Example 51, N-Isopropyl-N-methyl-3-phenyl-3-(2-thienyl)propanamine hydrochloride]",0.118
8,"c1ccc(C(CCN2CCCC2)c2cccs2)cc1 (centres unmarked) [Example 52, N-[3-Phenyl-3-(2-thienyl)propyl]pyrrolidine fumarate]",0.35
9,"c1ccc(C(CCN2CCCCC2)c2cccs2)cc1 (centres unmarked) [Example 53, N-[3-Phenyl-3-(2-thienyl)propyl]piperidine hydrochloride]",0.154
10,"CC(C)N(CCC(c1ccccc1)c1cccn1C)C(C)C (centres unmarked) [Example 59, N,N-Diisopropyl-3-(N-methylpyrrol-2-yl)-3-phenylpropanamine fumarate]",0.69
11,"Cn1cccc1C(CCN1CCCC1)c1ccccc1 (centres unmarked) [Example 60, 3-(N-Methylpyrrol-2-yl)-3-phenyl-1-pyrrolidinopropane fumarate]",0.707
